{"source": "patent US8883410B2", "about": "“Method for determining the stability of organic methyleneamines in the presence of semicarbazide-sensitive amine oxidase” (Sanofi, priority 2007, dated 2014)", "key": {"[1]": {"assay": "Benzylamine stability in control cell lysate (no SSAO expressed), LC/MS/MS", "format": "in vitro ADME", "conditions": "tag None", "experimental": "(§1) Adherent CHO cells were cultured at 37° C., 5% CO2 in media containing Ham's F12, 10% fetal bovine serum, 2 mM L-glutamine, 1% Penicillin/Streptomycin, 300 μM hygromycin B. Adherent HEK 293 cells were cultured at 37° C., 5% CO2 in D-MEM (high glucose), 10% fetal bovine serum, 2 mM L-glutamine, and 200 μM hygromycin B. Stable transformants were identified by loss of zeocin resistance. Once the cells were 80% confluent, SSAO expression was induced by the addition of Tetracycline to 1 μg/mL. Following 18 hours, the cells were harvested using a trypsin treatment of 3 minutes, at room temperature. Cells were washed 3 times in phosphate buffered saline before flash freezing in liquid nitrogen.\n(§2) For the preparation of cell lysate for activity testing, frozen cell pellets were resuspended in lysate buffer containing 10 mM Tris-HCl (pH 7.2), 150 mM NaCl, 1.5 mM MgCl2, 1% v/v NP-40 and incubated for 15 minutes on ice. Lysate was cleared by centrifugation 800×g for 10 minutes, 4° C. and stored in aliquots at −80° C. until use. Proteins were determined using Pierce Coomassie Protein Reagent, according to manufacturer's instructions.\n(§3) For each assay run, 1 mL of cell lysate (1.5 mg/mL protein) was mixed with benzylamine to 2000 ng/mL final concentration. At each corresponding time point, […] the incubation mixture was transferred to a microcentrifuge tube (1.7 mL) and mixed with 50 μL of acetonitrile. The tubes were vortex mixed briefly to ensure complete mixing and then centrifuged at 10,000×g for 5 minutes. The supernatant was removed and 50 μL was transferred to an autosampler vial and mixed with 50 μL of water before LC/MS/MS analysis. Benzylamine remaining in the lysate was analyzed with LC/MS/MS method.\n(§4) LC/MS/MS analysis was performed with a PE Sciex API 3000 mass spectrometer under the following conditions listed below and in Tables 1 and 2: […]"}, "[2]": {"target": "T1, human SSAO T1 (Gly27-Asn763), C-terminal 6xHIS tag (Homo sapiens, UniProt Q16853)", "T1 construct": "T1 (Gly27-Asn763) Representing the Enzyme Lacking the Membrane Anchoring Region; additional N-terminal Met (N); expressed in transfected cells; cell lysate", "T1 sequence (Q16853 27-763)": "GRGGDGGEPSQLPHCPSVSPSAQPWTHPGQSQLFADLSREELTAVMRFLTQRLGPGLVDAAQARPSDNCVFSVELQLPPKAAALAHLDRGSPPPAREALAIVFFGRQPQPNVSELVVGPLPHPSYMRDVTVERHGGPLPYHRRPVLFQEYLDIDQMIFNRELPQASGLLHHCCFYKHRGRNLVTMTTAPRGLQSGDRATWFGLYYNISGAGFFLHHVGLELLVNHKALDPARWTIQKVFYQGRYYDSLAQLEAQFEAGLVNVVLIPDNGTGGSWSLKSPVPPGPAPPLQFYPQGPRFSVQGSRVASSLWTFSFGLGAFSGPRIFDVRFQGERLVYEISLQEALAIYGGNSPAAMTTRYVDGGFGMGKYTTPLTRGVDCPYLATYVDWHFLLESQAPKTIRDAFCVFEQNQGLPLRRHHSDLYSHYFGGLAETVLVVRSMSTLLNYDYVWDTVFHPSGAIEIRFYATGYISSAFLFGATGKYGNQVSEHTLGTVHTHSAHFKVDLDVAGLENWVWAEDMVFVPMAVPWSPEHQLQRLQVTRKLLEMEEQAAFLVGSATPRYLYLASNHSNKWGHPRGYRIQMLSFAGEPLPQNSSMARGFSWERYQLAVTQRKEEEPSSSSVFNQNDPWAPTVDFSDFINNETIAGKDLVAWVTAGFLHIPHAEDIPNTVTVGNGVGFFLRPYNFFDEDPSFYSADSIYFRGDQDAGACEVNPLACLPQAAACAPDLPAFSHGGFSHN", "assay": "Benzylamine stability in lysate of cells expressing T1 SSAO with C-terminal 6xHIS tag, LC/MS/MS", "format": "in vitro ADME", "experimental": "3) T1 (Gly27-Asn763) Representing the Enzyme Lacking the Membrane Anchoring Region:\nThe expression constructs were prepared by cloning these PCR products into the pCDNA5-FRT-To-DEST vector (Invitrogen, Gateway System™). The forward and reverse DNA sequence of each construct was confirmed including expressed sequences and at least 100 base pairs either side of this. Stable cell lines for Flp-In CHO, Flp-In CHO T-Rex, and Flp-In HEK 293 (Invitrogen, Flp-In system™) were generated using these 6 constructs according to manufacturer's instructions. Cells were co-transfected with the regulatory vector, pOG44, and each of the pCDNA5-FRT-To-DEST constructs using Lipfectamine (Invitrogen) according to manufacturer's instructions. Thus, 18 cell lines were generated: CHO Flp-In full-length SSAO; CHO Flp-In full-length SSAO with C-terminal 6×HIS tag; CHO Flp-In T1 SSAO; CHO Flp-In T1 SSAO with C-terminal 6×HIS tag; CHO Flp-In T2 SSAO; CHO Flp-In T2 SSAO with C-terminal 6×HIS tag; CHO T-Rex Flp-In full-length SSAO; CHO T-Rex Flp-In full-length SSAO with C-terminal 6×HIS tag; CHO T-Rex Flp-In T1 SSAO; CHO T-Rex Flp-In T1 SSAO with C-terminal 6×HIS tag; CHO T-Rex Flp-In T2 SSAO; CHO Flp-In T2 SSAO with C-terminal 6×HIS tag; HEK 293 Flp-In full-length SSAO; HEK 293 Flp-In full-length SSAO with C-terminal 6×HIS tag; HEK 293 Flp-In T1 SSAO; HEK 293 Flp-In T1 SSAO with C-terminal 6×HIS tag; HEK 293 Flp-In T2 SSAO; HEK 293 Flp-In T2 SSAO with C-terminal 6×HIS tag.\nas §1, §2, §3, §4"}}}
{"molecule": "NCc1ccccc1", "note": "[Benzylamine]", "values": [{"measurement": "Benzylamine Remaining (%)", "setting": "[1]; CHO Flp-In T-Rex lysate, SSAO None, 0 min", "result": 100, "unit": "%"}, {"measurement": "Benzylamine Remaining (%)", "setting": "[1]; CHO Flp-In T-Rex lysate, SSAO None, 10 min", "result": 104, "unit": "%"}, {"measurement": "Benzylamine Remaining (%)", "setting": "[1]; CHO Flp-In T-Rex lysate, SSAO None, 2 h", "result": 99, "unit": "%"}, {"measurement": "Benzylamine Remaining (%)", "setting": "[1]; Control CHO Flp-In lysate, SSAO none, 0 min", "result": 100, "unit": "%"}, {"measurement": "Benzylamine Remaining (%)", "setting": "[1]; Control CHO Flp-In lysate, SSAO none, 10 min", "result": 104, "unit": "%"}, {"measurement": "Benzylamine Remaining (%)", "setting": "[1]; Control CHO Flp-In lysate, SSAO none, 2 h", "result": 99, "unit": "%"}, {"measurement": "Benzylamine Remaining (%)", "setting": "[1]; Control CHO lysate, SSAO none, 0 min", "result": 100, "unit": "%"}, {"measurement": "Benzylamine Remaining (%)", "setting": "[1]; Control CHO lysate, SSAO none, 10 min", "result": 111, "unit": "%"}, {"measurement": "Benzylamine Remaining (%)", "setting": "[1]; Control CHO lysate, SSAO none, 2 h", "result": 110, "unit": "%"}, {"measurement": "Benzylamine Remaining (%)", "setting": "[1]; HEK293 control lysate, SSAO none, 0 min", "result": 100, "unit": "%"}, {"measurement": "Benzylamine Remaining (%)", "setting": "[1]; HEK293 control lysate, SSAO none, 10 min", "result": 106, "unit": "%"}, {"measurement": "Benzylamine Remaining (%)", "setting": "[1]; HEK293 control lysate, SSAO none, 2 h", "result": 123, "unit": "%"}, {"measurement": "Benzylamine Remaining (%)", "setting": "[2]; CHO Flp-In T-Rex lysate, 0 min", "result": 100, "unit": "%"}, {"measurement": "Benzylamine Remaining (%)", "setting": "[2]; CHO Flp-In T-Rex lysate, 10 min", "result": 95, "unit": "%"}, {"measurement": "Benzylamine Remaining (%)", "setting": "[2]; CHO Flp-In T-Rex lysate, 2 h", "result": 93, "unit": "%"}, {"measurement": "Benzylamine Remaining (%)", "setting": "[2]; CHO Flp-In lysate, 0 min", "result": 100, "unit": "%"}, {"measurement": "Benzylamine Remaining (%)", "setting": "[2]; CHO Flp-In lysate, 10 min", "result": 101, "unit": "%"}, {"measurement": "Benzylamine Remaining (%)", "setting": "[2]; CHO Flp-In lysate, 2 h", "result": 98, "unit": "%"}, {"measurement": "Benzylamine Remaining (%)", "setting": "[2]; HEK293 lysate, 0 min", "result": 100, "unit": "%"}, {"measurement": "Benzylamine Remaining (%)", "setting": "[2]; HEK293 lysate, 10 min", "result": 111, "unit": "%"}, {"measurement": "Benzylamine Remaining (%)", "setting": "[2]; HEK293 lysate, 2 h", "result": 103, "unit": "%"}]}
